From patent US20220324835A1 (Nurix Therapeutics, Inc., priority 2018, published 2022)

Assays:
Cbl-b (residues 36-427) = Cbl-b (residues 36-427) (Homo sapiens, UniProt Q13191); assay: Cbl-b binding assay (SPR, Biacore T200); conditions: 20° C., 1:1 binding model
How it was run: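 NeutrAvidin capture chip, 20° C; 50 s injections at 50 μl/min, 90-180 s dissociation; 0.3 M NaCl regeneration. Asterisked column: 50 mM NaCl buffer and 30 nM Src kinase in place of 100 mM NaCl and 60 nM Src kinase. 1:1 fit.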

Cbl-b [1] = molecular target: T1, Cbl-b (Homo sapiens, UniProt Q13191); assay: Cbl-b inhibition assay (Cbl-b activity assay, FRET, Biological Example 1; 100 mM NaCl, 60 nM Src kinase); type: biochemical; conditions: upper bound stated in text lists; read-out: IC50 values in the Cbl-b inhibition assay of Biological Example 1
T1 sequence (Q13191 36-427): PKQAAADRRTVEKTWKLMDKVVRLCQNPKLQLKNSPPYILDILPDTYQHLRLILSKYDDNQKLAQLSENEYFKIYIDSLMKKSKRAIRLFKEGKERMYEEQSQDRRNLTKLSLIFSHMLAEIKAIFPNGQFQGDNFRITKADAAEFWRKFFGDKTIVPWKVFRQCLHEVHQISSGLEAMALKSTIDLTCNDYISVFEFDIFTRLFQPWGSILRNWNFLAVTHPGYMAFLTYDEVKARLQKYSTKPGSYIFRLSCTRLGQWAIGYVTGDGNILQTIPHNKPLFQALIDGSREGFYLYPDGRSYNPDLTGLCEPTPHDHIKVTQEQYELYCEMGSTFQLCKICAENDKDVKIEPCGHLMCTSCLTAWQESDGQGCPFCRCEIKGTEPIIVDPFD
How it was run: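 TR-FRET assay using N-terminal biotinylated Avi-tagged Cbl-b bound to streptavidin-terbium, Src kinase for Cbl-b phosphorylation, and UbcH5B irreversibly conjugated to Bodipy-Fluorescein-ubiquitin. Phosphorylated Cbl-b binds UbcH5B-Ub, bringing the fluorophores together; inhibition is read as loss of FRET signal.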

Cbl-b [2] = molecular target: T1, Cbl-b; assay: Cbl-b activity assay (Cbl-b inhibition assay), TR-FRET of Cbl-b interaction with UbcH5B-Ub; type: biochemical
How it was run: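 Compound-treated Cbl-b was incubated 1.5 h with Src kinase (60 nM final; 30 nM for asterisked values, which also used 50 mM instead of 100 mM NaCl), 1 mM ATP and 5 mM MgCl2. Binding to fluorescent Ub-loaded UbcH5B (C85K mutant) was then read by TR-FRET after 1 h more.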

[3] = assay buffer with 100 mM NaCl, 60 nM Src kinase, read-out: Cbl-b activity IC50

Sequence of Cbl-b (residues 36-427) (Q13191 36-427): as above

Row | Compound | Kd (Cbl-b (residues 36-427)) [µM] | IC50 (Cbl-b [1]) [µM] | IC50 (Cbl-b [2]; [3]) [µM] | IC50 (Cbl-b [2]; * assay buffer containing 50 mM NaCl instead of 100 mM NaCl and 30 nM Src kinase instead of 60 nM, read-out: Cbl-b activity IC50 (μM)*) [µM]
1 | C[C@@H](Sc1nncn1C)c1cccc(NC(=O)c2cc(C(=O)N3CC[C@H](O)C3)ccn2)c1 [Compound 161, 4-[[(3S)-3-hydroxypyrrolidin-1-yl]carbonyl]-N-[3-[(1R)-1-[(4-methyl-4H-1,2,4-triazol-3-yl)sulfanyl]ethyl]phenyl]pyridine-2-carboxamide] | > 10 | ≤ 10 | 3 to 10 | 
2 | CC(Sc1nncn1C)c1cccc(N2Cc3ccc(Cl)cc3C2=O)c1 (stereo not shown) [Compound 163, 6-chloro-2-[3-[1-[(4-methyl-1,2,4-triazol-3-yl)sulfanyl]ethyl]phenyl]isoindolin-1-one] | 3 to 10 | ≤ 10 | 3 to 10 | 3 to 10
3 | C[C@H](Sc1nncn1C)c1cccc(N2Cc3cc(Cl)ccc3C2=O)c1 [Compound 164, (S)-5-chloro-2-(3-(1-((4-methyl-4H-1,2,4-triazol-3-yl)thio)ethyl)phenyl)isoindolin-1-one] | 1 to 3 | ≤ 1 | 0.301 to 1 | 
4 | C[C@@H](Sc1nncn1C)c1cccc(N2Cc3c(cccc3C(F)(F)F)C2=O)c1 [Compound 166b, (R)-2-(3-(1-(4-methyl-4H-1,2,4-triazol-3-ylthio)ethyl)phenyl)-4-(trifluoromethyl)isoindolin-1-one] | 3 to 10 | ≤ 10 | 1 to 3 | 
5 | C[C@@H](Sc1nncn1C)c1cc(F)cc(N2Cc3c(cccc3C(F)(F)F)C2=O)c1 [Compound 168b, 2-[3-fluoro-5-[(1R)-1-[(4-methyl-1,2,4-triazol-3-yl)sulfanyl]ethyl]phenyl]-4-(trifluoromethyl)isoindolin-1-one] | 1 to 3 | ≤ 10 | 1 to 3 | 
6 | C[C@H](Sc1nncn1C)c1ccc(F)c(N2Cc3c(cccc3C(F)(F)F)C2=O)c1 [Compound 169, 2-[2-fluoro-5-[(1S)-1-[(4-methyl-1,2,4-triazol-3-yl)sulfanyl]ethyl]phenyl]-4-(trifluoromethyl)isoindolin-1-one] | 1 to 3 | ≤ 10 | 1 to 3 | 
7 | C[C@@H](Sc1nncn1C)c1ccnc(N2Cc3c(cccc3C(F)(F)F)C2=O)c1 [Compound 172b, (R)-2-(4-(1-((4-methyl-4H-1,2,4-triazol-3-yl)thio)ethyl)pyridin-2-yl)-4-(trifluoromethyl)isoindolin-1-one] | > 10 | ≤ 10 | 3 to 10 | 
8 | CC(Sc1nncn1C)c1cc(N)nc(N2Cc3c(cccc3C(F)(F)F)C2=O)c1 (stereo not shown) [Compound 175, 2-[6-amino-4-[1-[(4-methyl-1,2,4-triazol-3-yl)sulfanyl]ethyl]-2-pyridyl]-4-(trifluoromethyl)isoindolin-1-one] | 3 to 10 | ≤ 10 | 3 to 10 | 
9 | CC(CO)Nc1cc(C(C)Sc2nncn2C)cc(N2Cc3c(cccc3C(F)(F)F)C2=O)n1 (stereo not shown) [Compound 176, 2-[6-[(2-hydroxy-1-methyl-ethyl)amino]-4-[1-[(4-methyl-1,2,4-triazol-3-yl)sulfanyl]ethyl]-2-pyridyl]-4-(trifluoromethyl)isoindolin-1-one] | 1 to 3 | ≤ 1 | 0.301 to 1 | 
10 | CC(Sc1nncn1C)c1cc(NC[C@H](C)O)nc(N2Cc3c(cccc3C(F)(F)F)C2=O)c1 (stereo partly drawn) [Compound 177, 2-[6-[[(2S)-2-hydroxypropyl]amino]-4-[1-[(4-methyl-1,2,4-triazol-3-yl)sulfanyl]ethyl]-2-pyridyl]-4-(trifluoromethyl)iso-indolin-1-one] | 3 to 10 | ≤ 10 | 3 to 10 | 
11 | CCNc1cc(C(C)Sc2nncn2C)cc(N2Cc3c(cccc3C(F)(F)F)C2=O)n1 (stereo not shown) [Compound 178, 2-[6-(ethylamino)-4-[1-[(4-methyl-1,2,4-triazol-3-yl)sulfanyl]ethyl]-2-pyridyl]-4-(trifluoromethyl)isoindolin-1-one] | 0.301 to 1 | ≤ 1 | 0.301 to 1 | 
12 | CC(Sc1nncn1C)c1cc(NC2CCOC2)nc(N2Cc3c(cccc3C(F)(F)F)C2=O)c1 (stereo not shown) [Compound 179, 2-(4-(1-((4-methyl-4H-1,2,4-triazol-3-yl)thio)ethyl)-6-((tetrahydrofuran-3-yl)amino)pyridin-2-yl)-4-(trifluoromethyl)isoindolin-1-one] | 3 to 10 | ≤ 10 | 3 to 10 | 
13 | CNc1cc(C(C)Sc2nncn2C)cc(N2Cc3c(cccc3C(F)(F)F)C2=O)n1 (stereo not shown) [Compound 180, 2-[6-(methylamino)-4-[1-[(4-methyl-1,2,4-triazol-3-yl)sulfanyl]ethyl]-2-pyridyl]-4-(trifluoromethyl)isoindolin-1-one] | 1 to 3 | ≤ 10 | 1 to 3 | 
14 | Cn1cnnc1SC(CCO)c1cccc(NC(=O)c2cccc(C(F)(F)F)n2)c1 (stereo not shown) [Compound 181, N-(3-(3-hydroxy-1-((4-methyl-4H-1,2,4-triazol-3-yl)thio)propyl)phenyl)-6-(trifluoromethyl)picolinamide] | 3 to 10 | ≤ 10 | 1 to 3 | 
15 | C[C@H](Cc1nncn1C)c1cccc(NC(=O)c2cc3ccccc3cn2)c1 [Compound 182, (R)-N-(3-(1-(4-methyl-4H-1,2,4-triazol-3-yl)propan-2-yl)phenyl)isoquinoline-3-carboxamide] | 0.301 to 1 | ≤ 0.5 | 0.301 to 1 | 
16 | C[C@@H](Cc1nncn1C)c1cccc(NC(=O)c2cccc(C(F)(F)F)n2)c1 [Compound 183b, (S)-N-(3-(1-(4-methyl-4H-1,2,4-triazol-3-yl)propan-2-yl)phenyl)-6-(trifluoromethyl)picolinamide] | 3 to 10 | ≤ 10 | 0.1 to 0.3 | 
17 | C[C@H](Cc1nncn1C)c1cccc(NC(=O)c2cc(C(F)(F)F)ccn2)c1 [Compound 184, (R)-N-(3-(1-(4-methyl-4H-1,2,4-triazol-3-yl)propan-2-yl)phenyl)-4-(trifluoromethyl)picolinamide] | 3 to 10 | ≤ 10 | 1 to 3 | 
18 | C[C@@H](Cc1nncn1C)c1cccc(NC(=O)c2cc(S(C)(=O)=O)cc(C3CC3)n2)c1 [Compound 198b] | 3 to 10 | ≤ 10 | 3 to 10 | 
19 | C[C@H](Cc1nncn1C)c1cccc(NC(=O)c2cc(N[C@@H]3CC[C@H](O)C3)ccn2)c1 [Compound 204, 4-((1R,3S)-3-hydroxycyclopentylamino)-N-(3-((R)-1-(4-methyl-4H-1,2,4-triazol-3-yl)propan-2-yl)phenyl)picolinamide] | 1 to 3 | ≤ 10 | 1 to 3 | 
20 | C[C@H](Cc1nncn1C)c1cccc(NC(=O)c2cc(O[C@@H]3CC[C@H](O)C3)ccn2)c1 [Compound 207, 4-((1R,3S)-3-hydroxycyclopentyloxy)-N-(3-((R)-1-(4-methyl-4H-1,2,4-triazol-3-yl)propan-2-yl)phenyl)picolinamide] | 1 to 3 | ≤ 1 | 0.301 to 1 | 
21 | C[C@H](Cc1nncn1C)c1cccc(NC(=O)c2cc(N[C@H]3CC[C@@H](O)C3)ccn2)c1 [Compound 208, cis-4-(3-hydroxycyclopentylamino)-N-(3-((R)-1-(4-methyl-4H-1,2,4-triazol-3-yl)propan-2-yl)phenyl)picolinamide] | 3 to 10 | ≤ 1 | 0.301 to 1 | 
22 | C[C@@H](Cc1nncn1C)c1cccc(NC(=O)c2cc3cc(N4CCN(C)C(=O)C4)ccc3cn2)c1 [Compound 210, (S)-6-(4-methyl-3-oxopiperazin-1-yl)-N-(3-(1-(4-methyl-4H-1,2,4-triazol-3-yl)propan-2-yl)phenyl)isoquinoline-3-carboxamide 2,2,2-trifluoroacetate] | 3 to 10 | ≤ 10 | 3 to 10 | 
23 | C[C@H](Cc1nncn1C)c1cccc(NC(=O)c2cc(C(=O)N3C[C@@H](O)C[C@@H]3C)ccn2)c1 [Compound 223, 4-((2S,4S)-4-hydroxy-2-methylpyrrolidine-1-carbonyl)-N-(3-((R)-1-(4-methyl-4H-1,2,4-triazol-3-yl)propan-2-yl)phenyl)picolinamide] | 3 to 10 | ≤ 10 | 3 to 10 | 
24 | C[C@H](Cc1nncn1C)c1cccc(NC(=O)c2cc(C(=O)N3CC(S(C)(=O)=O)C3)ccn2)c1 [Compound 225, 4-(3-methanesulfonylazetidine-1-carbonyl)-N-[3-[(2R)-1-(4-methyl-4H-1,2,4-triazol-3-yl)propan-2-yl]phenyl]pyridine-2-carboxamide] | 3 to 10 | ≤ 10 | 1 to 3 | 
25 | C[C@H](Cc1nncn1C)c1cccc(NC(=O)c2cc(C(=O)NCC(C)(C)O)ccn2)c1 [Compound 226, (R)-N^4-(2-hydroxy-2-methylpropyl)-N^2-(3-(1-(4-methyl-4H-1,2,4-triazol-3-yl)propan-2-yl)phenyl)pyridine-2,4-dicarboxamide] | 3 to 10 | ≤ 10 | 3 to 10 | 
26 | C[C@H](Cc1nncn1C)c1cccc(NC(=O)c2cc(C(=O)N3CCC(C)(O)CC3)ccn2)c1 [Compound 227, (R)-4-(4-hydroxy-4-methylpiperidine-1-carbonyl)-N-(3-(1-(4-methyl-4H-1,2,4-triazol-3-yl)propan-2-yl)phenyl)picolinamide] | 3 to 10 | ≤ 10 | 1 to 3 | 
